Test results reported in patent US11479533B2, “Inhibitors of Rho associated coiled-coil containing protein kinase” (KADMON CORPORATION, LLC, priority 2017, dated 2022).

Tested on: bleomycin induced lung fibrosis
Test: Bleomycin induced lung fibrosis in mice (prophylactic administration)
Assay type: in vivo, mouse
Settings: oral once daily, 21-day treatment; ≥10 mg/kg
Experimental: Bleomycin induced lung fibrosis in mice (Phrophylactic administration): Male C57B/L6 mice were ear tagged and weighed prior to the start of the study. Treatment group animals were treated with the compound on day −1 pre-bleomycin and all subsequent days post-bleomycin administration. On day 0, animals in disease groups received 1.5 U/kg dose of bleomycin via oropharyngeal route. The non-bleomycin control group received sterile saline. Animals were closely monitored daily till the end of the study. On day 21 following bleomycin administration, all animals were euthanized and blood, lung, and bronchoalveolar lavage (BAL) fluid were collected. Blood samples were used for plasma preparation; total leukocytes were counted in BAL fluid; and lungs were fixed in 10% neutral buffered formalin for histopathological analysis. Based on the strong anti-fibrotic cellular activity of ROCK inhibitors of this invention, the ability of such inhibitors to attenuate fibrosis in the in vivo setting was assessed in several mouse models of fibrotic diseases including the bleomycin induced pulmonary fibrosis. […] The improvement in the overall lung fibrosis, α-smooth muscle actin (αSMA) percentage positive area and total leukocytes count in bronchoalveolar lavage fluid was quantitated by applying the Ashcoft score criteria to the histopathology images, IHC quantitation and flowcytometry respectively.

CNC(C(=O)Nc1ccc(-c2cn[nH]c2)cc1)c1cccc(OC)c1 (stereo not shown) [Example 2, N-(4-(1H-pyrazol-4-yl)phenyl)-2-(3-methoxyphenyl)-2-(methylamino)acetamide]
Ashcroft fibrotic indices, αSMA percentage positive area and total leukocytes count in bronchoalveolar lavage fluid: positive activity
